Measured values from US20250188069A1, “COMPOUNDS AND METHODS FOR DEGRADING CASEIN KINASE 1 ALPHA” (PIN THERAPEUTICS, INC., priority 2022, published 2025).
Structures can show the parent of a compound that is named as a salt.

Test system: MV-4-11 cells
Experiment: AML cell viability assay (RealTime-Glo)
Type: cell-based
Conditions: Homo sapiens, MV4-11, 44 h, read-out: Cell viability classification

Compound	IC50
CCCCCN(CCCCNC(=O)CCC)c1cccc2c1CN(C1CCC(=O)NC1=O)C2=O (stereo not shown) [Compound 148, N-(4-((2-(2,6-dioxopiperidin-3-yl)-1-oxoisoindolin-4-yl)(pentyl)amino)butyl)butyramide]	0.1 to 1 µM
CCCCCN(CCCCNC(=O)CC(C)C)c1cccc2c1CN(C1CCC(=O)NC1=O)C2=O (stereo not shown) [Compound 149, N-(4-((2-(2,6-dioxopiperidin-3-yl)-1-oxoisoindolin-4-yl)(pentyl)amino)butyl)-3-methylbutanamide]	> 1 µM

Same assay, conditions: Homo sapiens, MV4-11; IC50 class; MV-4-11 cells, RealTime-Glo after 44 hrs of treatment (TABLE 1); read-out: Cell viability classification

Compound	IC50
CCCN(CCN)c1cccc2c1CN(C1CCC(=O)NC1=O)C2=O (stereo not shown) [Compound 49, 3-(4-((2-aminoethyl)(propyl)amino)-1-oxoisoindolin-2-yl)piperidine-2,6-dione]	> 1 µM
CCCN(CCCN)c1cccc2c1CN(C1CCC(=O)NC1=O)C2=O (stereo not shown) [Compound 53, 3-(4-((3-aminopropyl)(propyl)amino)-1-oxoisoindolin-2-yl)piperidine-2,6-dione]	0.1 to 1 µM

Other lines, results leading:

IC50	Compound
0.1 to 1 µM	N[C@H]1CC[C@H](N(CCc2ccccc2)c2cccc3c2CN(C2CCC(=O)NC2=O)C3=O)CC1 (stereo partly shown) [Compound 247, 3-(4-(((1r,4r)-4-aminocyclohexyl)(phenethyl)amino)-1-oxoisoindolin-2-yl)piperidine-2,6-dione, HCl]
< 0.1 µM	CCCCCN(c1cccc2c1CN(C1CCC(=O)NC1=O)C2=O)[C@H]1CCC[C@H](N)C1 (stereo partly drawn) [Compound 327, 3-(4-(((1S,3S)-3-aminocyclohexyl)(pentyl)amino)-1-oxoisoindolin-2-yl)piperidine-2,6-dione]
< 0.1 µM	CCCCCN(c1cccc2c1CN(C1CCC(=O)NC1=O)C2=O)[C@H]1CCC[C@@H](N)C1 (stereo partly drawn) [Compound 328, 3-(4-(((1S,3R)-3-aminocyclohexyl)(pentyl)amino)-1-oxoisoindolin-2-yl)piperidine-2,6-dione]
< 0.1 µM	CC(C)(C)CCN(c1cccc2c1CN(C1CCC(=O)NC1=O)C2=O)[C@H]1CC[C@@H](CN)CC1 (stereo partly shown) [Compound 332, 3-(4-(((1s,4s)-4-(aminomethyl)cyclohexyl)(3,3-dimethylbutyl)amino)-1-oxoisoindolin-2-yl)piperidine-2,6-dione]
> 1 µM	C[C@H]1CC[C@@H](N(c2cccc3c2CN(C2CCC(=O)NC2=O)C3=O)[C@H]2CC[C@@H](CN)CC2)CC1 (stereo partly drawn) [Compound 334, 3-(4-(((1s,4S)-4-(aminomethyl)cyclohexyl)((1s,4S)-4-methylcyclohexyl)amino)-1-oxoisoindolin-2-yl)piperidine-2,6-dione]
0.1 to 1 µM	N[C@H]1CC[C@H](N(CCCC2CCCOC2)c2cccc3c2CN(C2CCC(=O)NC2=O)C3=O)CC1 (stereo partly shown) [Compound 340, 3-(4-(((1r,4r)-4-aminocyclohexyl)(3-(tetrahydro-2H-pyran-3-yl)propyl)amino)-1-oxoisoindolin-2-yl)piperidine-2,6-dione, HCl]
0.1 to 1 µM	N[C@H]1CC[C@H](N(CCCC2CCCCO2)c2cccc3c2CN(C2CCC(=O)NC2=O)C3=O)CC1 (stereo partly shown) [Compound 341, 3-(4-(((1r,4r)-4-aminocyclohexyl)(3-(tetrahydro-2H-pyran-2-yl)propyl)amino)-1-oxoisoindolin-2-yl)piperidine-2,6-dione, HCl]
0.1 to 1 µM	N[C@H]1CC[C@H](N(CCC=C2CCOCC2)c2cccc3c2CN(C2CCC(=O)NC2=O)C3=O)CC1 (stereo partly shown) [Compound 344, 3-(4-(((1r,4r)-4-aminocyclohexyl)(3-(tetrahydro-4H-pyran-4-ylidene)propyl)amino)-1-oxoisoindolin-2-yl)piperidine-2,6-dione. Formic Acid]
0.1 to 1 µM	N[C@H]1CC[C@H](N(CCCC2CCOC2)c2cccc3c2CN(C2CCC(=O)NC2=O)C3=O)CC1 (stereo partly shown) [Compound 345, 3-(4-(((1r,4r)-4-aminocyclohexyl)(3-(tetrahydrofuran-3-yl)propyl)amino)-1-oxoisoindolin-2-yl)piperidine-2,6-dione]

Same assay, conditions: Homo sapiens, MV4-11; IC50 class; MV-4-11 cells, RealTime-Glo after 44 hrs of treatment (TABLE 2); read-out: Cell viability classification

Compound	IC50
NCCCCN(CCCCN)c1cccc2c1CN(C1CCC(=O)NC1=O)C2=O (stereo not shown) [Compound 96, 3-(4-(bis(4-aminobutyl)amino)-1-oxoisoindolin-2-yl)piperidine-2,6-dione dihydrochloride]	0.1 to 1 µM
NCCCCN(CCCN)c1cccc2c1CN(C1CCC(=O)NC1=O)C2=O (stereo not shown) [Compound 97, 3-(4-((4-aminobutyl)(3-aminopropyl)amino)-1-oxoisoindolin-2-yl)piperidine-2,6-dione dihydrochloride]	> 1 µM
NCCCCN(c1cccc2c1CN(C1CCC(=O)NC1=O)C2=O)[C@H]1CC[C@@H](CN)CC1 (stereo partly shown) [Compound 104, 3-(4-((4-aminobutyl)((1s,4s)-4-(aminomethyl)cyclohexyl)amino)-1-oxoisoindolin-2-yl)piperidine-2,6-dione dihydrochloride]	0.1 to 1 µM
NCCCCN(c1cccc2c1CN(C1CCC(=O)NC1=O)C2=O)[C@H]1CC[C@H](CN)CC1 (stereo partly drawn) [Compound 105, 3-(4-((4-aminobutyl)((1R,4R)-4-(aminomethyl)cyclohexyl)amino)-1-oxoisoindolin-2-yl)piperidine-2,6-dione, 2HCl]	0.1 to 1 µM
CCCCCN(CCC(C)(C)CN)c1cccc2c1CN(C1CCC(=O)NC1=O)C2=O (stereo not shown) [Compound 123, 3-(4-((4-amino-3,3-dimethylbutyl)(pentyl)amino)-1-oxoisoindolin-2-yl)piperidine-2,6-dione hydrochloride]	< 0.1 µM
CC(C)(CN)CCN(CCCCN)c1cccc2c1CN(C1CCC(=O)NC1=O)C2=O (stereo not shown) [Compound 124, 3-(4-((4-amino-3,3-dimethylbutyl)(4-aminobutyl)amino)-1-oxoisoindolin-2-yl)piperidine-2,6-dione dihydrochloride]	< 0.1 µM
CC(C)(CCN)CCN(CCCCN)c1cccc2c1CN(C1CCC(=O)NC1=O)C2=O (stereo not shown) [Compound 125, 3-(4-((5-amino-3,3-dimethylpentyl)(4-aminobutyl)amino)-1-oxoisoindolin-2-yl)piperidine-2,6-dione dihydrochloride]	0.1 to 1 µM
CC(C)(CN)CCCN(CCCCN)c1cccc2c1CN(C1CCC(=O)NC1=O)C2=O (stereo not shown) [Compound 126, 3-(4-((5-amino-4,4-dimethylpentyl)(4-aminobutyl)amino)-1-oxoisoindolin-2-yl)piperidine-2,6-dione dihydrochloride]	< 0.1 µM
CCCCCN(CCCCNC(=O)NC)c1cccc2c1CN(C1CCC(=O)NC1=O)C2=O (stereo not shown) [Compound 143, 1-(4-((2-(2,6-dioxopiperidin-3-yl)-1-oxoisoindolin-4-yl)(pentyl)amino)butyl)-3-methylurea]	0.1 to 1 µM
CCCCCN(CCCCNC(=O)CC(C)(C)C)c1cccc2c1CN(C1CCC(=O)NC1=O)C2=O (stereo not shown) [Compound 150, N-(4-((2-(2,6-dioxopiperidin-3-yl)-1-oxoisoindolin-4-yl)(pentyl)amino)butyl)-3,3-dimethylbutanamide]	> 1 µM
CCCCCN(CCCCNC(=O)CC1CCCCC1)c1cccc2c1CN(C1CCC(=O)NC1=O)C2=O (stereo not shown) [Compound 151, 2-cyclohexyl-N-(4-((2-(2,6-dioxopiperidin-3-yl)-1-oxoisoindolin-4-yl)(pentyl)amino)butyl)acetamide]	> 1 µM
CCCCCN(CCCCNC(=O)CNC)c1cccc2c1CN(C1CCC(=O)NC1=O)C2=O (stereo not shown) [Compound 181, N-(4-((2-(2,6-dioxopiperidin-3-yl)-1-oxoisoindolin-4-yl)(pentyl)amino)butyl)-2-(methylamino)acetamide]	0.1 to 1 µM

Now from value to molecule:

IC50	Compound
< 0.1 µM	CCCCCN(C[C@H]1CC[C@@H](N)CC1)c1cccc2c1CN(C1CCC(=O)NC1=O)C2=O (stereo partly shown) [Compound 91, 3-(4-((((1s,4s)-4-aminocyclohexyl)methyl)(pentyl)amino)-1-oxoisoindolin-2-yl)piperidine-2,6-dione, HCl]
< 0.1 µM	CCCCCN(C[C@H]1CC[C@H](N)CC1)c1cccc2c1CN(C1CCC(=O)NC1=O)C2=O (stereo partly shown) [Compound 92, 3-(4-((((1r,4r)-4-aminocyclohexyl)methyl)(pentyl)amino)-1-oxoisoindolin-2-yl)piperidine-2,6-dione, HCl]
0.1 to 1 µM	NCCCCN(c1cccc2c1CN(C1CCC(=O)NC1=O)C2=O)[C@H]1CC[C@@H](N)CC1 (stereo partly drawn) [Compound 102, 3-(4-((4-aminobutyl)((1S,4S)-4-aminocyclohexyl)amino)-1-oxoisoindolin-2-yl)piperidine-2,6-dione dihydrochloride]
0.1 to 1 µM	NCCCCN(c1cccc2c1CN(C1CCC(=O)NC1=O)C2=O)[C@H]1CC[C@H](N)CC1 (stereo partly shown) [Compound 103, 3-(4-((4-aminobutyl)((1r,4r)-4-aminocyclohexyl)amino)-1-oxoisoindolin-2-yl)piperidine-2,6-dione, 2HCl]
0.1 to 1 µM	NCCCCN(C[C@H]1CC[C@@H](N)CC1)c1cccc2c1CN(C1CCC(=O)NC1=O)C2=O (stereo partly shown) [Compound 106, 3-(4-((4-aminobutyl)(((1s,4s)-4-aminocyclohexyl)methyl)amino)-1-oxoisoindolin-2-yl)piperidine-2,6-dione, 2HCl]
0.1 to 1 µM	NCCCCN(C[C@H]1CC[C@H](N)CC1)c1cccc2c1CN(C1CCC(=O)NC1=O)C2=O (stereo partly shown) [Compound 107, 3-(4-((4-aminobutyl)(((1r,4r)-4-aminocyclohexyl)methyl)amino)-1-oxoisoindolin-2-yl)piperidine-2,6-dione, HCl]
< 0.1 µM	C[C@H]1CC[C@@H](N(CCCCN)c2cccc3c2CN(C2CCC(=O)NC2=O)C3=O)CC1 (stereo partly shown) [Compound 108, 3-(4-((4-aminobutyl)((1s,4s)-4-methylcyclohexyl)amino)-1-oxoisoindolin-2-yl)piperidine-2,6-dione hydrochloride]
0.1 to 1 µM	C[C@H]1CC[C@H](N(CCCCN)c2cccc3c2CN(C2CCC(=O)NC2=O)C3=O)CC1 (stereo partly shown) [Compound 109, 3-(4-((4-aminobutyl)((1r,4r)-4-methylcyclohexyl)amino)-1-oxoisoindolin-2-yl)piperidine-2,6-dione hydrochloride]

Same assay, conditions: Homo sapiens, MV4-11; IC50 class; MV-4-11 cells, RealTime-Glo after 44 hrs of treatment (TABLE 3); read-out: Cell viability classification

IC50	Compound
> 1 µM	C[C@H]1CC[C@@H](N(c2cccc3c2CN(C2CCC(=O)NC2=O)C3=O)[C@H]2CC[C@H](N)CC2)CC1 (stereo partly drawn) [Compound 331, 3-(4-(((1r,4R)-4-aminocyclohexyl)((1s,4S)-4-methylcyclohexyl)amino)-1-oxoisoindolin-2-yl)piperidine-2,6-dione]
